Data taken from patent US10450336B2 (Los Alamos National Security, LLC, priority 2014, dated 2019).

Test: radiolabeling kinetics of the ligands with Bi-207 (radio-TLC)
Details: bismuth complexation, comparison among the four ligands
Description: The radiolabeling kinetics of the ligands L^py, L^pyd, L^pyr, and L^pz with bismuth ions was examined using Bi-207 (t1/2=32 years) because it has a much longer half life than Bi-213. Solutions having concentrations of 1, 10, 100, and 1000 micromolar (“μM”) of each of the ligands were prepared. Each solution was combined with 3 kBq of Bi-207. The reaction temperature was ambient room temperature (21±2° C.). Aliquots of each reaction mixture were obtained during the reaction and analyzed by radio-TLC. The rates of reaction (i.e. the radiolabeling kinetics) between the bismuth ions and the ligands were dependent on the individual ligand and also on the concentration of the ligand. At a ligand concentration of 1 μM, a maximum of 50% labeling was observed after 60 minutes. At a ligand concentration of 1000 micromolar, the reaction was nearly 100% complete (i.e. 100% of the ligand was labeled with Bi-207) after 5 minutes. FIG. 3 provides a graph of the radiolabeling kinetics for the four ligands at a ligand concentration of 100 μM. […] By comparison, chelation of Bi-213 with the known ligands DOTA and CHX-DTPA requires heating to 90° C.

SMILES: c1cnc(CN2CCN(Cc3cnccn3)CCN(Cc3cnccn3)CCN(Cc3cnccn3)CC2)cn1 [L^py, 1,4,7,10-Tetrakis(2-pyrazinylmethyl)-1,4,7,10-tetraazacyclododecane, reference compound]
- complexation kinetics (relative): slowest
